From US20250109120A1, “INDOLINE DERIVATIVES FOR TREATMENT AND/OR PREVENTION OF TUMOR OR CELL PROLIFERATIVE AND FIBROSIS DISEASES” (NATIONAL TAIWAN UNIVERSITY, priority 2023, published 2025)

Experiments:
PC-3 cells = assay: PC-3 SCID mouse model; assay type: in vivo, mice; details: oral, 50 mg/kg q.d., 31 days
Procedure: PC-3 cells (1×10^7 cells) were injected subcutaneously into the flanks of 7-week-old male SCID mice and treated with vehicle or compound k (50 mg/kg) q.d. for 31 days. […] Tumors were excised from each mouse after a 31-day treatment. […] The length is represented by the scale bar as indicated.
(§1) The cells were incubated in lysis buffer for 10 min at 4° C., scraped off, incubated on ice for an additional 10 min and then centrifuged at 17,000 g for 30 min at 4° C. Protein samples were electrophoresed on SDS-PAGE gels, transferred to PVDF membranes and blocked with 5% fat-free milk in PBS for 30 min at room temperature. Immunoblotting was performed overnight with primary antibodies in PBS at 4° C., followed by incubation with HRP-conjugated secondary antibodies for 1 h at room temperature. Bound antibodies will be measured using an ECL reagent and exposed to a photographic film. In the immunoprecipitation assay, cell lysates were immunoprecipitated with 1 μg of antibody and A/G agarose beads overnight at 4° C. After washing the precipitated beads three times with 1 mL ice-cold cell lysis buffer, bound immune complexes were separated by 10% SDS-PAGE and analyzed with immunoblotting.
Tissue sections underwent dewaxing and rehydration. Antigen retrieval was performed by autoclaving the slides in Trilogy solution (Cell Marque, Hot Springs, AR) at 121° C. for 10 min. The slides were blocked with 3% H2O2 and 5% fetal bovine serum, incubated with primary antibodies at 4° C. overnight, and then treated with polymer-HRP reagent (Dako Cytomation, Glostrup, Denmark). activity Peroxidase was visualized using diamino-benzidine tetrahydrochloride solution (DAKO), and sections were counterstained with hematoxylin. Dark brown nuclear staining was defined as positive, no staining was defined as negative.

[1] = tested on: CDH1 reporter in DU145 cells; assay: 7TFP CDH1 reporter luciferase assay; assay type: cell-based, human; details: TGF-β1 10 ng/mL, 24 h
A549 cells [2] = assay: TGF-β1-induced EMT protein expression, western blot; assay type: cell-based, human; details: test compounds 2 μM, senexin A 5 μM, pirfenidone 1 mM; TGF-β1 10 ng/mL
Procedure: FIGS. 4A-4B show the inhibition of epithelial-to-mesenchymal transition protein expressions by CDK8 inhibitors in human alveolar epithelial cells. […] Cell lysates were subjected to a Western blot analysis using the indicated antibodies. Results are shown as the mean t SEM from three independent experiments. *p<0.05, and ***p<0.001 compared to the control group; #p<0.05, ##p<0.01, and ###p<0.001 compared to the TGF-β1-treated group. […] Cell viabilities were determined by an MTT assay. Results are shown as the mean t SEM of three independent experiments.
(§2) Cells (106) were incubated for 10 min at 4° C. in lysis buffer (20 mM HEPES at pH 7.4, 2 mM EGTA, 50 mM β-glycerophosphate, 0.1% Triton X-100, 10% glycerol, 1 mM DTT, 1 μg/mL of leupeptin, 5 μg/mL of aprotinin, 1 mM phenylmethylsulfonyl fluoride, and 1 mM sodium orthovanadate), scraped off, incubated on ice for an additional 10 min, and centrifuged at 17,000 g for 30 min at 4° C. Protein samples (20 μg) were then electrophoresed on SDS-polyacrylamide gel electrophoresis (PAGE) gels and transferred to a nitrocellulose membrane, which was then blocked by incubation for 30 min at room temperature with 5% bovine serum albumin (BSA) in Tris-buffered saline with 0.1% Tween-20 (TBST). Immunoblotting was performed by overnight incubation at 4° C. with primary antibodies in TBST, followed by incubation for 1 h at room temperature with horseradish peroxidase (HRP)-conjugated secondary antibodies. Bound antibodies were measured using enhanced chemiluminescence (ECL) reagent (GE Healthcare, UK) and exposed to photographic film.

DU145 cells = assay: TGF-β/Smad/RNA polymerase II signaling, western blot, fractionation, immunoprecipitation; assay type: cell-based, human; details: 10 μM
Procedure: Whole-cell lysates were subjected to western blotting with the indicated antibodies. […] The proteins in the cytosol and nucleus were detected by western blotting analysis, and the proteins expression in the nucleus were quantified. […] The results are shown as the mean±SEM from at least three independent experiments (*p<0.05, **p<0.01, and ***p<0.001 vs. control group; #p<0.05, ##p<0.01, and ###p<0.001 vs. TGF-β1 treatment group; § p<0.05, §§ p<0.01 vs. indicated group).
as §1

A549 cells [3] = assay: Nuclear p-Smad3 T179 and RNA polymerase II pS2/S5 after TGF-β1, fractionation and western blot; assay type: cell-based, human; details: compound k 5 μM, senexin A 5 μM, pirfenidone 1 mM; TGF-β1 10 ng/ml 3 h
Procedure: FIGS. 8A-8B show the inhibitory effects of cellular distributions of TGF-β1-induced p-Smad3 T179, RNA polymerase II pS2/S5, and Smad3 after treatment with compound k. Human alveolar epithelial A549 cells were incubated with compound k (5 μM), senexin A (5 μM), or pirfenidone (1 mM) for 1 h, followed by stimulation with TGF-β1 (10 ng/ml) for 3 h. Protein expressions in the cytoplasmic and nuclear fractions were subjected to a Western blot analysis using the indicated antibodies. α-Tubulin and histone H3 served as loading controls for the cytoplasmic and nuclear fractions, respectively. Results are shown as the mean±SEM of three independent experiments. **p<0.01 and ***p<0.001 compared to the control group; #p<0.05 and ##p<0.01 compared to the TGF-β1-treated group.
as §2
A Nuclear/Cytosol Fractionation Kit (Biovision, USA) was used to separate the cytosolic and nuclear fractions. […]

CNC(=O)c1cc(Oc2ccc(NS(=O)(=O)c3ccc4c(c3)C(=C(C)C)C(=O)N4)c(F)c2)ccn1 [Compound k, 4-(3-Fluoro-4-((2-oxo-3-(propan-2-ylidene)indoline)-5-sulfonamido)phenoxy)-N-methylpicolinamide]
binding of CDK8 and p-Smad3 (Thr179), tumor immunoprecipitation (PC-3 cells): markedly inhibited
body weight changes (PC-3 cells): no apparent body weight changes
expression of EMT proteins, α-SMA, p-Smad3 (Thr179), active β-catenin, p-STAT1 Ser727 in tumor immunoblots (PC-3 cells): markedly inhibited
interaction of CDK8 and MED12, tumor immunoprecipitation (PC-3 cells): did not affect
tumor margin, H&E staining (PC-3 cells): distinct boundary
vimentin, N-cadherin and Snail levels, IHC staining of tumors (PC-3 cells): significantly decreased
CDH1-driven luciferase expression reduced by TGF-β1 [1]: reversed this effect to the control level
TGF-β1-triggered EMT protein expressions (A549 cells [2]): significant inhibition
binding of CDK8 to RNA polymerase II (Ser2/5), Smad3 and Pin1 (immunoprecipitation) (DU145 cells; TGF-β1 10 ng/mL): inhibited
phosphorylation of Smad3 and RNA polymerase II in nuclear fraction (DU145 cells; TGF-β1 10 ng/mL 1 h): markedly suppressed
expression of mesenchymal markers (N-cadherin, Snail) (DU145 cells; TGF-β1 10 ng/mL 24 h): significantly downregulated
phosphorylation of p-Smad3 T179 and RNA Pol II pSer2/5 (A549 cells [3]): significantly reversed
